How the values were obtained:
Assay in all cases: cells
[1] = system: CAL-85-1; type: functional, cell-based; details: Homo sapiens;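 further: growth inhibition of human CAL-85-1 cells, read out with a cell viability assay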
Description: SANGER: Inhibition of human CAL-85-1 cell growth in a cell viability assay.

[2] = system: NCI-H1792; type: functional, cell-based; details: Homo sapiens;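 further: growth inhibition of human NCI-H1792 cells, read out as cell viability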
Description: SANGER: Inhibition of human NCI-H1792 cell growth in a cell viability assay.

[3] = system: RH-18; type: functional, cell-based; details: Homo sapiens, Rh18;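 further: growth inhibition of human RH-18 cells, read out with a cell viability assay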
Description: SANGER: Inhibition of human RH-18 cell growth in a cell viability assay.

[4] = system: RO82-W-1; type: functional, cell-based; details: Homo sapiens;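 further: growth inhibition of human RO82-W-1 cells, measured with a cell viability assay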
Description: SANGER: Inhibition of human RO82-W-1 cell growth in a cell viability assay.

[5] = system: A549; type: functional, cell-based; details: Homo sapiens;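 further: growth inhibition of A549 cells, read out with a cell viability assay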
Description: SANGER: Inhibition of human A549 cell growth in a cell viability assay.

[6] = system: ACHN; type: functional, cell-based; details: Homo sapiens;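 further: cell viability read-out used to gauge how strongly growth of human ACHN cells is suppressed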
Description: SANGER: Inhibition of human ACHN cell growth in a cell viability assay.

[7] = system: BPH-1; type: functional, cell-based; details: Homo sapiens;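 further: cell viability assay measuring growth inhibition of human BPH-1 cells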
Description: SANGER: Inhibition of human BPH-1 cell growth in a cell viability assay.

[8] = system: NBsusSR; type: functional, cell-based; details: Homo sapiens;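 further: growth inhibition of the human cell line, read out with a cell viability assay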
Description: SANGER: Inhibition of human NBsusSR cell growth in a cell viability assay.

[9] = system: MKN-1; type: functional, cell-based; details: Homo sapiens;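 further: growth inhibition of human MKN1 cells, read out by a cell viability measurement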
Description: SANGER: Inhibition of human MKN1 cell growth in a cell viability assay.

[10] = system: CFPAC-1; type: functional, cell-based; details: Homo sapiens;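 further: cell viability readout used to gauge suppression of CFPAC-1 cell proliferation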
Description: SANGER: Inhibition of human CFPAC-1 cell growth in a cell viability assay.

[11] = system: HCC1569; type: functional, cell-based; details: Homo sapiens;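 further: growth inhibition of human HCC1569 cells, read out with a cell viability assay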
Description: SANGER: Inhibition of human HCC1569 cell growth in a cell viability assay.

[12] = system: OC-314; type: functional, cell-based; details: Homo sapiens
Description: SANGER: Inhibition of human OC-314 cell growth in a cell viability assay.

[13] = system: OVCAR-3; type: functional, cell-based; details: Homo sapiens;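 further: growth inhibition of human OVCAR-3 cells, determined by a cell viability assay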
Description: SANGER: Inhibition of human OVCAR-3 cell growth in a cell viability assay.

[14] = system: PC-3; type: functional, cell-based; details: Homo sapiens;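 further: cell viability assay measuring growth inhibition of PC-3 cells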
Description: SANGER: Inhibition of human PC-3 cell growth in a cell viability assay.

[15] = system: SK-MEL3; type: functional, cell-based, SK-MEL-3; details: Homo sapiens;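 further: growth inhibition of human SK-MEL-3 cells, read out with a cell viability assay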
Description: SANGER: Inhibition of human SK-MEL-3 cell growth in a cell viability assay.

[16] = system: HT-3; type: functional, cell-based; details: Homo sapiens;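 further: growth inhibition measured with a cell viability readout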
Description: SANGER: Inhibition of human HT-3 cell growth in a cell viability assay.

[17] = system: HSC-2; type: functional, cell-based; details: Homo sapiens;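 further: growth inhibition of human HSC-2 cells, read out by a cell viability assay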
Description: SANGER: Inhibition of human HSC-2 cell growth in a cell viability assay.

[18] = system: RT-112; type: functional, cell-based; details: Homo sapiens
Description: SANGER: Inhibition of human RT-112 cell growth in a cell viability assay.

[19] = system: A2058; type: functional, cell-based; details: Homo sapiens;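 further: reduction of A2058 cell growth, read out with a viability assay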
Description: SANGER: Inhibition of human A2058 cell growth in a cell viability assay.

[20] = system: MDA-MB-175-VII; type: functional, cell-based; details: Homo sapiens
[21] = system: H-EMC-SS; type: functional, cell-based; details: Homo sapiens
Description: SANGER: Inhibition of human H-EMC-SS cell growth in a cell viability assay.

[22] = system: KNS-62; type: functional, cell-based; details: Homo sapiens;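 further: inhibition of cell growth, read out with a cell viability assay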
Description: SANGER: Inhibition of human KNS-62 cell growth in a cell viability assay.

[23] = system: NCI-H2452; type: functional, cell-based; details: Homo sapiens;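 further: growth inhibition of NCI-H2452 cells, read out with a cell viability assay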
Description: SANGER: Inhibition of human NCI-H2452 cell growth in a cell viability assay.

[24] = system: CAL-51; type: functional, cell-based; details: Homo sapiens;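 further: human CAL-51 cell line, growth inhibition read out via a cell viability assay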
Description: SANGER: Inhibition of human CAL-51 cell growth in a cell viability assay.

[25] = system: SNU-449; type: functional, cell-based; details: Homo sapiens
Description: SANGER: Inhibition of human SNU-449 cell growth in a cell viability assay.

[26] = system: SCC-4; type: functional, cell-based; details: Homo sapiens;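 further: growth inhibition of human SCC-4 cells, read out as cell viability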
Description: SANGER: Inhibition of human SCC-4 cell growth in a cell viability assay.

[27] = system: NCI-H28; type: functional, cell-based; details: Homo sapiens;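 further: growth inhibition of human NCI-H28 cells, read out as cell viability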
Description: SANGER: Inhibition of human NCI-H28 cell growth in a cell viability assay.

[28] = system: NB14; type: functional, cell-based, Homo sapiens; details: Homo sapiens, NB14;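 further: growth inhibition of NB14 cells measured with a cell viability assay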
Description: SANGER: Inhibition of human NB14 cell growth in a cell viability assay.

[29] = system: KP-4; type: functional, cell-based; details: Homo sapiens;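 further: human KP-4 cells, with growth inhibition read out through a cell viability assay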
Description: SANGER: Inhibition of human KP-4 cell growth in a cell viability assay.

[30] = system: HCC1419; type: functional, cell-based; details: Homo sapiens;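 further: growth inhibition of human HCC1419 cells, read out as cell viability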
Description: SANGER: Inhibition of human HCC1419 cell growth in a cell viability assay.

[31] = system: NCI-H810; type: functional, cell-based; details: Homo sapiens;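 further: IC50 reflects inhibition of cancer cell line growth, read out with a cell viability assay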
Description: SANGER: Inhibition of human NCI-H810 cell growth in a cell viability assay.

[32] = system: COLO-741; type: functional, cell-based; details: Homo sapiens
Description: SANGER: Inhibition of human COLO-741 cell growth in a cell viability assay.

[33] = system: ZR-75-30; type: functional, cell-based; details: Homo sapiens;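 further: growth inhibition of ZR-75-30 cells, measured with a cell viability readout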
Description: SANGER: Inhibition of human ZR-75-30 cell growth in a cell viability assay.

[34] = system: 647-V; type: functional, cell-based; details: Homo sapiens;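 further: growth inhibition of 647-V cells, read out with a cell viability assay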
Description: SANGER: Inhibition of human 647-V cell growth in a cell viability assay.

[35] = system: NCI-H1651; type: functional, cell-based; details: Homo sapiens;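 further: Read-out is a cell viability assay, with IC50 expressing inhibition of NCI-H1651 cell growth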
Description: SANGER: Inhibition of human NCI-H1651 cell growth in a cell viability assay.

[36] = system: NCI-H2347; type: functional, cell-based; details: Homo sapiens;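 further: growth inhibition of the cell line, read out with a cell viability assay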
Description: SANGER: Inhibition of human NCI-H2347 cell growth in a cell viability assay.

[37] = system: NCI-H1048; type: functional, cell-based; details: Homo sapiens;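 further: growth inhibition of human NCI-H1048 cells, read out with a cell viability assay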
Description: SANGER: Inhibition of human NCI-H1048 cell growth in a cell viability assay.

[38] = system: GMS-10; type: functional, cell-based; details: Homo sapiens;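 further: growth inhibition of GMS-10 cells, read out as cell viability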
Description: SANGER: Inhibition of human GMS-10 cell growth in a cell viability assay.

[39] = system: T-24; type: functional, cell-based; details: Homo sapiens;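 further: growth inhibition of T-24 cells, read out with a cell viability assay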
Description: SANGER: Inhibition of human T-24 cell growth in a cell viability assay.

[40] = system: U-118-MG; type: functional, cell-based; details: Homo sapiens
Description: SANGER: Inhibition of human U-118-MG cell growth in a cell viability assay.

[41] = system: IGROV-1; type: functional, cell-based; details: Homo sapiens;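 further: reduction of IGROV-1 cell growth, read out with a viability assay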
Description: SANGER: Inhibition of human IGROV-1 cell growth in a cell viability assay.

[42] = system: T84; type: functional, cell-based; details: Homo sapiens;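 further: growth inhibition measured with a cell viability readout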
Description: SANGER: Inhibition of human T84 cell growth in a cell viability assay.

[43] = system: A 172; type: functional, cell-based; details: Homo sapiens;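 further: growth inhibition of A172 cells, measured with a cell viability readout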
Description: SANGER: Inhibition of human A172 cell growth in a cell viability assay.

[44] = system: NCI-H650; type: functional, cell-based; details: Homo sapiens;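 further: growth inhibition of NCI-H650 cells, read out by a viability assay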
Description: SANGER: Inhibition of human NCI-H650 cell growth in a cell viability assay.

CN(NC(=O)CC(=O)NN(C)C(=S)c1ccccc1)C(=S)c1ccccc1 [ELESCLOMOL]
IC50 [1]: 72.7 nM | IC50 [2]: > 200 nM | IC50 [3]: 74.2 nM | IC50 [4]: 26.2 nM | IC50 [5]: 19.6 nM | IC50 [6]: > 200 nM | IC50 [7]: 83.1 nM | IC50 [8]: 3.13 nM | IC50 [9]: 26 nM | IC50 [10]: > 200 nM | IC50 [11]: > 200 nM | IC50 [12]: 33.5 nM | IC50 [13]: 6.2 nM | IC50 [14]: 7.89 nM | IC50 [15]: > 200 nM | IC50 [16]: > 200 nM | IC50 [17]: 107 nM | IC50 [18]: 14.2 nM | IC50 [19]: 13.9 nM | IC50 [20]: > 200 nM | IC50 [21]: 3.68 nM | IC50 [22]: 9.62 nM | IC50 [23]: 21.7 nM | IC50 [24]: < 0.781 nM | IC50 [25]: 14.2 nM | IC50 [26]: > 200 nM | IC50 [27]: 13.7 nM | IC50 [28]: 6.64 nM | IC50 [29]: 2.17 nM | IC50 [30]: 19.6 nM | IC50 [31]: 125 nM | IC50 [32]: 176 nM | IC50 [33]: 47.9 nM | IC50 [34]: 6.9 nM | IC50 [35]: 82.9 nM | IC50 [36]: 28.7 nM | IC50 [37]: 18.4 nM | IC50 [38]: 107 nM | IC50 [39]: 1.55 nM | IC50 [40]: > 200 nM | IC50 [41]: 104 nM | IC50 [42]: > 200 nM | IC50 [43]: 20.9 nM | IC50 [44]: 36.6 nM

CC1(C)CCC(c2ccc(Cl)cc2)=C(CN2CCN(c3ccc(C(=O)NS(=O)(=O)c4ccc(N[C@H](CCN5CCOCC5)CSc5ccccc5)c(S(=O)(=O)C(F)(F)F)c4)cc3)CC2)C1 [NAVITOCLAX]
IC50 [1]: > 2000 nM | IC50 [2]: > 2000 nM | IC50 [3]: 60.5 nM | IC50 [4]: > 2000 nM | IC50 [5]: > 2000 nM | IC50 [6]: > 2000 nM | IC50 [7]: > 2000 nM | IC50 [8]: > 2000 nM | IC50 [9]: > 2000 nM | IC50 [10]: > 2000 nM | IC50 [11]: 251 nM | IC50 [12]: > 2000 nM | IC50 [13]: > 2000 nM | IC50 [14]: > 2000 nM | IC50 [15]: > 2000 nM | IC50 [16]: > 2000 nM | IC50 [17]: > 2000 nM | IC50 [18]: > 2000 nM | IC50 [19]: > 2000 nM | IC50 [20]: > 2000 nM | IC50 [21]: > 2000 nM | IC50 [22]: > 2000 nM | IC50 [23]: > 2000 nM | IC50 [24]: > 2000 nM | IC50 [25]: > 2000 nM | IC50 [26]: 1600 nM | IC50 [27]: > 2000 nM | IC50 [28]: 1140 nM | IC50 [29]: > 2000 nM | IC50 [30]: > 2000 nM | IC50 [31]: > 2000 nM | IC50 [32]: > 2000 nM | IC50 [33]: > 2000 nM | IC50 [34]: > 2000 nM | IC50 [35]: > 2000 nM | IC50 [36]: > 2000 nM | IC50 [37]: 510 nM | IC50 [38]: > 2000 nM | IC50 [39]: > 2000 nM | IC50 [40]: > 2000 nM | IC50 [41]: > 2000 nM | IC50 [42]: > 2000 nM | IC50 [43]: > 2000 nM | IC50 [44]: > 2000 nM

Cc1ccc(-n2nc(C(C)(C)C)cc2NC(=O)Nc2ccc(OCCN3CCOCC3)c3ccccc23)cc1 [DORAMAPIMOD]
IC50 [1]: > 10000 nM | IC50 [2]: > 10000 nM | IC50 [3]: > 10000 nM | IC50 [4]: > 10000 nM | IC50 [5]: > 10000 nM | IC50 [6]: > 10000 nM | IC50 [7]: > 10000 nM | IC50 [8]: > 10000 nM | IC50 [9]: > 10000 nM | IC50 [10]: > 10000 nM | IC50 [11]: > 10000 nM | IC50 [12]: > 10000 nM | IC50 [13]: > 10000 nM | IC50 [14]: > 10000 nM | IC50 [15]: > 10000 nM | IC50 [16]: > 10000 nM | IC50 [17]: > 10000 nM | IC50 [18]: > 10000 nM | IC50 [19]: > 10000 nM | IC50 [20]: > 10000 nM | IC50 [21]: > 10000 nM | IC50 [22]: > 10000 nM | IC50 [23]: > 10000 nM | IC50 [24]: > 10000 nM | IC50 [25]: > 10000 nM | IC50 [26]: > 10000 nM | IC50 [27]: > 10000 nM | IC50 [28]: > 10000 nM | IC50 [29]: > 10000 nM | IC50 [30]: > 10000 nM | IC50 [31]: > 10000 nM | IC50 [32]: > 10000 nM | IC50 [33]: > 10000 nM | IC50 [34]: > 10000 nM | IC50 [35]: > 10000 nM | IC50 [36]: > 10000 nM | IC50 [37]: > 10000 nM | IC50 [38]: > 10000 nM | IC50 [39]: 8410 nM | IC50 [40]: > 10000 nM | IC50 [41]: > 10000 nM | IC50 [42]: > 10000 nM | IC50 [43]: > 10000 nM | IC50 [44]: > 10000 nM

Source: ChEMBL document CHEMBL1201861, “Genomics of Drug Sensitity in Cancer screening data, Wellcome Trust Sanger Institute”
